Source: patent US10604509B2, “Nrf2 regulators” (GlaxoSmithKline Intellectual Property Development Limited, priority 2015, dated 2020)
Where a name gives a salt, the structure may show the parent alone.

Test system: NQO1 specific enzyme activity in BEAS-2B cells
Assay: BEAS-2B NQO1 MTT assay
Assay type: cell-based
Conditions: BEAS-2B cells, 48 hours with compound, MTT readout; read-out: EC50 of NQO1 specific activity induction
How it was run: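 NQO1 specific activity, an NRF2 activation marker, read kinetically as absorbance change at 570 nm for 30 min after MTT cocktail addition to crude lysates of BEAS-2B cells exposed 48 h to compound. Three-parameter fit of Delta OD/min against log concentration gives EC50; lysate portion used for Cell Titer Glo.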

| SMILES | EC50 [µM] |
| --- | --- |
| CC[C@@H]1CN(Cc2cc(C(CCc3cn(CC)nn3)C(C)(C)C(=O)O)ccc2C)Cc2ncccc2O1 (single isomer, unassigned) [Example 252] | 0.01 to 0.1 |
| Cc1ccc([C@@H](CC(=O)O)c2ccc3c(nnn3C)c2C)cc1CN1Cc2cc(F)ccc2OC(C)(C)C1 [Example 57, (R)-3-(1,4-Dimethyl-1H-benzo[d][1,2,3]triazol-5-yl)-3-(3-((7-fluoro-2,2-dimethyl-2,3-dihydrobenzo[f][1,4]oxazepin-4(5H)-yl)methyl)-4-methylphenyl)propanoic acid, 0.7formic acid salt] | 0.01 to 0.1 |

Same assay, conditions: Homo sapiens, BEAS-2B, 48 h, BEAS-2B cells, 48 hours with compound, MTT readout; read-out: EC50 of NQO1 specific activity induction

| SMILES | EC50 [µM] |
| --- | --- |
| Cc1ccc([C@H](c2ccc3c(nnn3C)c2C)C(C)(C)C(=O)O)cc1Cc1cnnn1CC1CCCCCC1 (single isomer, unassigned) [Example 242] | 0.01 to 0.1 |
| CCC1CCN(Cc2nccn2Cc2cc([C@@H](c3ccc4c(nnn4CC)c3C)C(C)(C)C(=O)O)ccc2C)CC1 [Example 239, (S)-3-(1-Ethyl-4-methyl-1H-benzo[d][1,2,3]triazol-5-yl)-3-(3-((2-((4-ethylpiperidin-1-yl)methyl)-1H-imidazol-1-yl)methyl)-4-methylphenyl)-2,2-dimethylpropanoic Acid] | < 0.001 |
| Cc1ccc([C@H](c2ccc3c(nnn3C)c2C)C(C)(C)C(=O)O)cc1Cn1ccnc1CC1CCCCCC1 [Example 125, (R)-3-(3-((2-(Cycloheptylmethyl)-1H-imidazol-1-yl)methyl)-4-methylphenyl)-3-(1,4-dimethyl-1H-benzo[d][1,2,3]triazol-5-yl)-2,2-dimethylpropanoate, Sodium salt] | 0.1 to 1 |
| CC[C@@H]1CN(Cc2cc([C@@H](c3ccc4c(nnn4C)c3C)C(C)(C)C(=O)O)ccc2C)Cc2cnc(Cl)cc2O1 [Example 29] | < 0.001 |
| Cc1ccc(C(CC(=O)O)c2ccc3c(nnn3C)c2C)cc1Cn1ccnc1CC1CCCC1 (centres unmarked) [Example 148, 3-(3-((2-(Cyclopentylmethyl)-1H-imidazol-1-yl)methyl)-4-methylphenyl)-3-(1,4-dimethyl-1H-benzo[d][1,2,3]triazol-5-yl)propanoic acid] | 0.1 to 1 |
| Cc1ccc(C(c2ccc3c(nnn3C)c2C)C(C)(C)C(=O)O)cc1CN1Cc2ccccc2OC(C)(C)C1 (centres unmarked) [Example 8, 3-(1,4-Dimethyl-1H-benzo[d][1,2,3]triazol-5-yl)-3-(3-((2,2-dimethyl-2,3-dihydrobenzo[f][1,4]oxazepin-4(5H)-yl)methyl)-4-methylphenyl)-2,2-dimethylpropanoic Acid, Formic Acid Salt] | 0.001 to 0.01 |
| CCC1CN(Cc2cc([C@H](CC(=O)O)c3ccc4c(nnn4C)c3C)ccc2C)Cc2ccccc2O1 (stereo partly drawn) [Example 5, (3S)-3-(1,4-Dimethyl-1H-benzo[d][1,2,3]triazol-5-yl)-3-(3-((2-ethyl-2,3-dihydrobenzo[f][1,4]oxazepin-4(5H)-yl)methyl)-4-methylphenyl)propanoic Acid, Trifluoroacetic Acid Salt] | 0.01 to 0.1 |
| CCn1nnc2c(F)c([C@H](CC(=O)O)c3ccc(C)c(CN4Cc5ccccc5OC(C)(C)C4)c3)ccc21 [Example 65, (R)-3-(3-((2,2-Dimethyl-2,3-dihydrobenzo[f][1,4]oxazepin-4(5H)-yl)methyl)-4-methylphenyl)-3-(1-ethyl-4-fluoro-1H-benzo[d][1,2,3]triazol-5-yl)propanoic Acid, Hydrochloride] | 0.01 to 0.1 |
| CC[C@@H]1CN(Cc2cc(C(c3ccc4c(nnn4C)c3C)C(C)(C)C(=O)O)ccc2C)Cc2c(F)cccc2O1 (stereo partly drawn) [Example 31, 3-(1,4-Dimethyl-1H-benzo[d][1,2,3]triazol-5-yl)-3-(3-(((R)-2-ethyl-6-fluoro-2,3-dihydrobenzo[f][1,4]oxazepin-4(5H)-yl)methyl)-4-methylphenyl)-2,2-dimethylpropanoic Acid, Formic Acid Salt] | < 0.001 |
| Cc1ccc([C@H](CC(=O)O)c2ccc3c(nnn3C)c2C)cc1CN1Cc2ccc(F)cc2OC(C)(C)C1 [Example 63, (S)-3-(1,4-Dimethyl-1H-benzo[d][1,2,3]triazol-5-yl)-3-(3-((8-fluoro-2,2-dimethyl-2,3-dihydrobenzo[f][1,4]oxazepin-4(5H)-yl)methyl)-4-methylphenyl)propanoic acid] | 0.01 to 0.1 |
| CC[C@@H]1CN(Cc2cc([C@H](c3ccc4c(nnn4CC)c3C)[C@H](C)C(=O)O)ccc2C)Cc2cnccc2O1 [Example 197, (2S,3R)-3-(3-(((R)-2-Ethyl-2,3-dihydropyrido[3,4-f][1,4]oxazepin-4(5H)-yl)methyl)-4-methylphenyl)-3-(1-ethyl-4-methyl-1H-benzo[d][1,2,3]triazol-5-yl)-2-methylpropanoate, Sodium salt] | 0.01 to 0.1 |
| CCC1CN(Cc2cc(C(CC(=O)O)c3ccc4c(nnn4C)c3C)ccc2C)Cc2cc(F)ccc2O1 (centres unmarked) [Example 87, 3-(1,4-Dimethyl-1H-benzo[d][1,2,3]triazol-5-yl)-3-(3-((2-ehtyl-7-fluoro-2,3-dihydrobenzo[f][1,4]oxazepin-4(5H)-yl)methyl)-4-methylphenyl)propanoic acid] | 0.01 to 0.1 |
| Cc1ccc(C(CC(=O)O)c2ccc3c(nnn3C)c2C)cc1CN1CCOc2ccccc2C1 (centres unmarked) [Example 1, 3-(3-((2,3-Dihydrobenzo[f][1,4]oxazepin-4(5H)-yl)methyl)-4-methylphenyl)-3-(1,4-dimethyl-1H-benzo[d][1,2,3]triazol-5-yl)propanoic Acid, Trifluoroacetic Acid Salt] | 1 to 10 |
| CC[C@@H]1CN(Cc2cc(C(c3ccc4c(nnn4C)c3C)C(C)(C)C(=O)O)cnc2C)Cc2cnccc2O1 (stereo partly drawn) [Example 213, 3-(1,4-Dimethyl-1H-benzo[d][1,2,3]triazol-5-yl)-3-(5-(((R)-2-ethyl-2,3-dihydropyrido[3,4-f][1,4]oxazepin-4(5H)-yl)methyl)-6-methylpyridin-3-yl)-2,2-dimethylpropanoic acid, Trifluoroacetic Acid Salt] | 0.1 to 1 |
| Cc1ccc(C(CC(=O)O)c2ccc3c(nnn3C)c2C)cc1CN(C)Cc1cccc(Br)c1 (centres unmarked) [Example 17, Ammonium 3-(3-(((3-bromobenzyl)(methyl)amino)methyl)-4-methylphenyl)-3-(1,4-dimethyl-1H-benzo[d][1,2,3]triazol-5-yl)propanoate] | 1 to 10 |
| CCn1nnc2c(C)c(C(CC(=O)O)c3ccc(C)c(CN4Cc5ccccc5O[C@@H](C)C4)c3)ccc21 (stereo partly drawn) [Example 97, 3-(1-Ethyl-4-methyl-1H-benzo[d][1,2,3]triazol-5-yl)-3-(4-methyl-3-(((S)-2-methyl-2,3-dihydrobenzo[f][1,4]oxazepin-4(5H)-yl)methyl)phenyl)propanoic Acid, Formic Acid Salt] | 0.1 to 1 |
| CC[C@@H]1CN(Cc2cc(C(CC(=O)O)c3ccc4c(nnn4C)c3C)ccc2C)Cc2cc(C)ccc2O1 (stereo partly drawn) [Example 81, Ammonium 3-(1,4-dimethyl-1H-benzo[d][1,2,3]triazol-5-yl)-3-(3-(((R)-2-ethyl-7-methyl-2,3-dihydrobenzo[f][1,4]oxazepin-4(5H)-yl)methyl)-4-methylphenyl)propanate] | 0.01 to 0.1 |
| Cc1ccc(C(CC(=O)O)c2ccc3c(nnn3C)c2C)cc1CN1Cc2cccnc2OC(C)(C)C1 (centres unmarked) [Example 96, 3-(1,4-Dimethyl-1H-benzo[d][1,2,3]triazol-5-yl)-3-(3-((2,2-dimethyl-2,3-dihydropyrido[3,2-f][1,4]oxazepin-4(5H)-yl)methyl)-4-methylphenyl)propanoic Acid] | 0.1 to 1 |
| CC[C@@H]1CN(Cc2cc([C@@H](c3ccc4c(nnn4C)c3C)C(C)(C)C(=O)O)ccc2C)Cc2ncccc2O1 [Example 218, (S)-3-(1,4-Dimethyl-1H-benzo[d][1,2,3]triazol-5-yl)-3-(3-(((R)-2-ethyl-2,3-dihydropyrido[2,3-f][1,4]oxazepin-4(5H)-yl)methyl)-4-methylphenyl)-2,2-dimethylpropanoic Acid, Trifluoroacetate] | 0.001 to 0.01 |
| Cc1ccc(C(c2ccc3c(nnn3C)c2C)C(C)(C)C(=O)O)cc1Cn1ccnc1CN1C2CCCC1CC2 (centres unmarked) [Example 156, 3-(3-((2-(8-Azabicyclo[3.2.1]octan-8-ylmethyl)-1H-imidazol-1-yl)methyl)-4-methylphenyl)-3-(1,4-dimethyl-1H-benzo[d][1,2,3]triazol-5-yl)-2,2-dimethylpropanoic Acid, Trifluoroacetic Acid Salt] | 0.01 to 0.1 |
| COCC1CN(Cc2cc(C(CC(=O)O)c3ccc4c(nnn4C)c3C)ccc2C)Cc2ccccc2O1 (centres unmarked) [Example 74, 3-(1,4-Dimethyl-1H-benzo[d][1,2,3]triazol-5-yl)-3-(3-((2-(methoxymethyl)-2,3-dihydrobenzo[f][1,4]oxazepin-4(5H)-yl)methyl)-4-methylphenyl)propanoic acid, formic acid salt] | 0.1 to 1 |
| CC[C@@H]1CN(Cc2cc([C@@H](CC(=O)O)c3ccc4c(nnn4C)c3C)ccc2C)Cc2ccccc2O1 [Example 51, (R)-3-(1,4-Dimethyl-1H-benzo[d][1,2,3]triazol-5-yl)-3-(3-(((R)-2-ethyl-2,3-dihdyrobenzo[f][1,4]oxazepin-4(5H)-yl)methyl)-4-methylphenyl)propanoic acid, formic acid salt] | 0.1 to 1 |
| Cc1ccc(C(CC(=O)O)c2ccc3c(nnn3C)c2C)cc1Cn1ccnc1CC1CCOCC1 (centres unmarked) [Example 129, 3-(1,4-Dimethyl-1H-Benzo[d][1,2,3]triazol-5-yl)-3-(4-methyl-3-((2-((tetrahydro-2H-pyran-4-yl)methyl)-1H-imidazol-1-yl)methyl)phenyl)propanoic Acid] | 0.1 to 1 |
| CCC1CCN(Cc2nccn2Cc2cc([C@@H](c3ccc4c(nnn4C)c3C)C(C)(C)C(=O)O)ccc2Cl)CC1 [Example 237, (S)-3-(4-Chloro-3-((2-((4-ethylpiperidin-1-yl)methyl)-1H-imidazol-1-yl)methyl)phenyl)-3-(1,4-dimethyl-1H-benzo[d][1,2,3]triazol-5-yl)-2,2-dimethylpropanoic Acid] | < 0.001 |
